Legend:
IL-1β = assay: ELISA of IL-1β in brain tissue of cerebral ischemia-reperfusion rats; settings: brain homogenate
[1] = system: FeCl3-Induced Middle Cerebral Artery Thrombosis (MCAT) Rats; assay: Cerebral infarct size (TTC staining) in FeCl3-induced middle cerebral artery thrombosis rats; format: in vivo, rat; settings: for cerebral infarct size percentage to affected side / cerebral infarct size percentage to total brain: x ± s; for effect on cerebral infarct size (in words): 20 mg/kg and 40 mg/kg, 7 days
Description: (§1) Tamura and Liu's methods were used with modifications to prepare the model. Rats were anesthetized by intraperitoneal injection of 10% chloral hydrate (0.35 g/kg); and fixed with right arm reclining. An arc incision of about 1.5 cm in length was made at the midpoint between the link of paropia and external auditory canal and temporalis was removed to expose the temporal bone. […] The surrounding-tissues were protected with a piece of plastic film. A small piece of quantitative filter paper, which had absorbed 10 μL of a 50% ferric chloride solution, was applied on this segment of middle cerebral artery. The filter paper was removed after 30 min, and local tissues were rinsed with normal saline solution, followed by suture layer by layer. Then the experimental rats were put back to rearing cage. The temperature was controlled at 24° C. For the sham-operation group, the operation procedures were the same as the model group except for the application of the ferric chloride solution.
After behavior assessment, the animals were decapitated to remove the brains. The olfactory bulb, cerebellum and lower brain stem were removed, and the remaining part was cut into 5 coronal sections below 4° C. The sections were immediately placed into a TTC staining solution (containing 1.5 m 4% TTC, 0.1 ml 1M K2HPO4 and water (balance) per 5 ml staining solution), followed by incubation in dark at 37° C. for 30 min. Then, the sections were transferred into a solution of 10% formaldehyde and incubated in dark for 24 h. After staining, the non-ischemic areas were rose red, and the infracted areas were white. The white tissues were carefully collected and weighed. The extent of cerebral infarction was expressed as a percentage (%) of infracted tissue to the weight of total brain and also to the affected side of brain.

[2] = system: FeCl3-Induced Middle Cerebral Artery Thrombosis (MCAT) Rats; assay: Neurological symptom score in middle cerebral artery thrombosis rats; format: in vivo, rat; settings: for effect on neurological symptoms (in words): 20 mg/kg and 40 mg/kg, 7 days; for neurological symptomatic score 6 h: 6 h after operation; for neurological symptomatic score 6 h / neurological symptomatic score 24 h: full score 4; for neurological symptomatic score 24 h: 24 h after operation
Description: as §1
The experimental animals were tested for behaviors 6 h and 24 h after operation according to the Sederson's method with modifications. Criteria: (1) The tail of the rat was lifted to observe the flexibility of the forelimb, with both forelimbs symmetrically stretching forward scored as 0, and occurrence of any or all of shoulder inflexion, elbow inflexion, shoulder intorsion in the contralateral fore-limb opposite to the operation side scored as 1. (2) The animal was placed on a plane, and its shoulders were pushed to the opposite direction to check resistance, Equivalency and strong resistance in both sides was scored as 0, and reduction in resistance in the contralateral side was scored as 1. (3) Both forelimbs of the rat were placed on wire gauze to observe the muscular tension. […] According to the criteria above, the full score is 4, and the higher the score is, the more serious the behavior disorder of the animal is.

[3] = system: cerebral ischemia-reperfusion model rats; assay: Inflammatory factors in brain tissues in cerebral ischemia-reperfusion rats (overall statement); settings: 40 mg/kg
[4] = system: acute blood stagnation model rats; assay: Whole blood and plasma viscosities in acute blood stagnation model rats; format: in vivo, rat; settings: for effect on whole blood and plasma viscosities (in words): 10 mg/kg, 20 mg/kg and 40 mg/kg, high, middle and low shear rates
Description: MAO Teng-min's methods were modified to prepare the model.

IL-10 = assay: ELISA of IL-10 in brain tissue of cerebral ischemia-reperfusion rats; settings: brain homogenate
TNF-α = assay: ELISA of TNF-α in brain tissue of cerebral ischemia-reperfusion rats; settings: brain homogenate
platelet aggregation = settings: cited from earlier work
[5] = system: streptozocin-induced diabetic mouse; settings: cited from earlier work
[6] = system: Middle Cerebral Artery Thrombosis (MCAT) Rats; assay: Water content in brain tissues in middle cerebral artery thrombosis rats; format: in vivo, rat; settings: for Water content of affected hemisphere / Water content of unaffected hemisphere: 24 h after operation
TGF-β = assay: ELISA of TGF-β in brain tissue of cerebral ischemia-reperfusion rats; settings: brain homogenate
[7] = system: acute blood stagnation model rats; assay: Erythrocyte aggregation and deformability in acute blood stagnation model rats; format: in vivo, rat; settings: for effect on erythrocyte aggregation index (in words) / effect on erythrocyte deformability (in words): vs. model group; for Erythrocyte aggregation SS / Erythrocyte deformability SSS: area under curve; for Erythrocyte aggregation MAXD: maximal erythrocyte aggregation index; for Erythrocyte deformability MAXDI: maximal erythrocyte deformation index
Protocol: MAO Teng-min's methods were modified to prepare the model. Rats were subcutaneously injected with 0.8 mg/kg adrenaline twice at 1 h and 5 h after administration on the fifth day, and were placed into ice-water at 4° C. for 5 min at 2 h after the first injection of adrenaline.
To 40 μl of heparinized blood, 1 ml of deforming solution was added and mixed thoroughly. A sample of 0.8 ml was tested in an erythrocyte aggregation/deformability tester, and erythrocyte deformability was expressed as maximal erythrocyte deformation index and area under curve (SSS). Another 0.8 ml of anticoagulated blood was tested in an erythrocyte aggregation/deformability tester, and erythrocyte aggregation was expressed as maximal erythrocyte aggregation index (MAXD) and area under curve ([…]).

[8] = Fenton reaction system; paramagnetic method; cited from earlier work
[9] = vs. model group P<0.05, P<0.01, listed as timosaponin BIT
[10] = 40 mg/kg, listed as timosaponin BII, 40 mg/kg

## C[C@@H](CCC1(O)O[C@H]2C[C@H]3[C@@H]4CC[C@@H]5C[C@@H](O[C@@H]6O[C@H](CO)[C@H](O)[C@H](O)[C@H]6O[C@@H]6O[C@H](CO)[C@@H](O)[C@H](O)[C@H]6O)CC[C@]5(C)[C@H]4CC[C@]3(C)[C@H]2[C@@H]1C)CO[C@@H]1O[C@H](CO)[C@@H](O)[C@H](O)[C@H]1O (stereo partly drawn) [Timosaponin BII, (25S)-26-O-β-D-glucopyranosyl-22-hydroxy-5β-furostane-3β,26-diol-3-O-β-D-glucopyranosyl(1→2)-β-D-galactopyranoside]
IL-1β; 10 mg/kg by gavage 5 days
  IL-1β: 9.70 ± 0.30 pg/mL
IL-1β; 40 mg/kg by gavage 5 days
  IL-1β: 7.98 ± 0.80 pg/mL
[1]; 10 mg/kg by gavage 7 days
  cerebral infarct size percentage to affected side: 6.35 ± 3.39%
  cerebral infarct size percentage to total brain: 3.27 ± 1.74%
[1]; vs. model group P<0.05, P<0.01
  effect on cerebral infarct size (in words): significantly reduced the cerebral infarct size
[1]; [9]
  effect on cerebral infarct size (in words): significantly reduce the cerebral infarct size
[1]; 20 mg/kg by gavage 7 days
  cerebral infarct size percentage to affected side: 5.37 ± 2.20 %
  cerebral infarct size percentage to total brain: 2.92 ± 1.20 %
[1]; 40 mg/kg by gavage 7 days
  cerebral infarct size percentage to affected side: 3.88 ± 2.38 %
  cerebral infarct size percentage to total brain: 1.99 ± 1.20 %
[2]; vs. model group P<0.05, P<0.01
  effect on neurological symptoms (in words): ameliorate neurological symptoms
[2]; [9]
  effect on neurological symptoms (in words): significantly lower the neurological symptom score
[2]; 10 mg/kg by gavage 7 days
  neurological symptomatic score 6 h: 2.08 ± 0.67
  neurological symptomatic score 24 h: 2.08 ± 0.79
[2]; 20 mg/kg by gavage 7 days
  neurological symptomatic score 6 h: 1.82 ± 0.75
  neurological symptomatic score 24 h: 2.00 ± 0.45
[2]; 40 mg/kg by gavage 7 days
  neurological symptomatic score 6 h: 1.50 ± 0.71
  neurological symptomatic score 24 h: 1.90 ± 0.74
[3]
  effect on levels of inflammatory factors IL-1β, TNF-α, IL-10, TGF-β (in words): significantly reduced the levels of these inflammatory factors
[4]; 10 mg/kg by gavage 5 days
  Plasma viscosity (100 S^−1): 1.40 ± 0.10
  Whole blood viscosity 1 S^−1: 27.03 ± 4.64
  Whole blood viscosity 5 S^−1: 11.02 ± 1.38
  Whole blood viscosity 30 S^−1: 6.10 ± 0.85
  Whole blood viscosity 200 S^−1: 4.45 ± 0.71
[4]; P<0.05, P<0.01
  effect on whole blood and plasma viscosities (in words): significantly lowered whole blood and plasma viscosities
[4]; P<0.05, P<0.01, listed as timosaponin BII
  effect on whole blood and plasma viscosities (in words): significantly reduce the whole blood and plasma viscosities
[4]; 20 mg/kg by gavage 5 days
  Plasma viscosity (100 S^−1): 1.36 ± 0.10
  Whole blood viscosity 1 S^−1: 33.13 ± 5.70
  Whole blood viscosity 5 S^−1: 12.91 ± 1.82
  Whole blood viscosity 30 S^−1: 6.55 ± 0.93
  Whole blood viscosity 200 S^−1: 4.49 ± 0.70
[4]; 40 mg/kg by gavage 5 days
  Plasma viscosity (100 S^−1): 1.38 ± 0.12
  Whole blood viscosity 1 S^−1: 31.21 ± 4.29
  Whole blood viscosity 5 S^−1: 12.46 ± 1.33
  Whole blood viscosity 30 S^−1: 6.45 ± 0.60
  Whole blood viscosity 200 S^−1: 4.42 ± 0.38
IL-10; 10 mg/kg by gavage 5 days
  IL-10: 14.49 ± 11.78 pg/mL
IL-10; 40 mg/kg by gavage 5 days
  IL-10: 11.19 ± 5.16 pg/mL
TNF-α; 10 mg/kg by gavage 5 days
  TNFα: 8.44 ± 0.62 pg/mL
TNF-α; 40 mg/kg by gavage 5 days
  TNFα: 7.65 ± 0.61 pg/mL
Platelet aggregation
  clotting time (in words): prolonging clotting time
  platelet aggregation (in words): obviously inhibiting platelet aggregation
[5]
  blood sugar level (in words): can lower blood sugar level
[6]; 40 mg/kg, vs. model group P<0.05, 40 mg/kg
  effect on water content of brain / cerebral edema (in words): significantly lowered the water content in the affected hemisphere
[6]; 40 mg/kg, vs. model group P<0.05, listed as timosaponin BIT, 40 mg/kg
  effect on water content of brain / cerebral edema (in words): significantly reduce the water content of brain
[6]; 10 mg/kg
  Water content of affected hemisphere: 80.52 ± 0.69%
  Water content of unaffected hemisphere: 79.51 ± 0.57%
[6]; 20 mg/kg
  Water content of affected hemisphere: 80.46 ± 0.79%
  Water content of unaffected hemisphere: 79.41 ± 0.38%
[6]; 40 mg/kg
  Water content of affected hemisphere: 80.15 ± 0.99 %
  Water content of unaffected hemisphere: 79.47 ± 0.44%
TGF-β; 10 mg/kg by gavage 5 days
  TGF-β: 12.70 ± 3.57 pg/mL
TGF-β; 40 mg/kg by gavage 5 days
  TGF-β: 10.30 ± 3.79 pg/mL
[7]; 40 mg/kg, 40 mg/kg
  effect on erythrocyte aggregation index (in words): reduce the erythrocyte agglutination index
  effect on erythrocyte deformability (in words): significantly improve the deformation ability of erythrocytes
[7]; [10]
  effect on erythrocyte aggregation index (in words): decrease in erythrocyte aggregation index
  effect on erythrocyte deformability (in words): significant increase in erythrocyte deformability index
[7]; 10 mg/kg
  Erythrocyte aggregation SS: 186.67 ± 28.85
  Erythrocyte deformability SSS: 363.88 ± 19.58
  Erythrocyte aggregation MAXD: 0.94 ± 0.14
  Erythrocyte deformability MAXDI: 0.72 ± 0.05
[7]; 20 mg/kg
  Erythrocyte aggregation SS: 163.04 ± 50.23
  Erythrocyte deformability SSS: 363.97 ± 27.87
  Erythrocyte aggregation MAXD: 0.81 ± 0.26
  Erythrocyte deformability MAXDI: 0.71 ± 0.05
[7]; 40 mg/kg
  Erythrocyte aggregation SS: 152.78 ± 28.11
  Erythrocyte deformability SSS: 374.26 ± 15.82
  Erythrocyte aggregation MAXD: 0.76 ± 0.14
  Erythrocyte deformability MAXDI: 0.73 ± 0.03
[8]
  free radicals cleared: 57%
